The data set deals with rodent carcinogenicity bioassays, tumor incidence. Briefly: CCRIS carcinogenicity studies. The method, boiled down:
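NCI-built, expert-reviewed records of carcinogenicity and related test outcomes (mutagenicity, tumor promotion/inhibition) compiled from published and report sources, historical span 1985-2011, not updated.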

The source made the active and inactive calls. No rule for the calls is given here.

As for `COc1ccc(C(c2ccc(OC)cc2)C(Cl)(Cl)Cl)cc1`, the carcinogen call by setting is: (Species: MOUSE, Strain/Sex: B6C3F1/FEMALE, Route: ORAL, Dose: 0, 997, 1994 PPM IN DIET, TWA, Dose: 0, 997, 1994 PPM IN DIET, TWA) “inactive; negative”; (Species: MOUSE, Strain/Sex: B6C3F1/MALE, Route: ORAL, Dose: 0, 1746, 3491 PPM IN DIET, TWA, Dose: 0, 1746, 3491 PPM IN DIET, TWA) “inactive; negative”; (Species: MOUSE, Strain/Sex: BALB/MALE, Route: ORAL, Dose: 750 PPM IN DIET, Tumor Site: Type of Lesion: TESTES: INTERSTITIAL CELL CARCINOMA) “active; positive”; (Species: RAT, Strain/Sex: OSBORNE-MENDEL/FEMALE, Route: ORAL, Dose: 0, 750, 1385 PPM IN DIET, TWA, Dose: 0, 750, 1385 PPM IN DIET, TWA) “inactive; negative”; (Species: RAT, Strain/Sex: OSBORNE-MENDEL/MALE, Route: ORAL, Dose: 0, 448, 845 PPM IN DIET, TWA, Dose: 0, 448, 845 PPM IN DIET, TWA) “inactive; negative”.
Turning to `Oc1ccccc1`, the carcinogen call was “inactive; negative” (Species: MOUSE, Strain/Sex: B6C3F1/FEMALE, Route: ORAL, Dose: 0, 2500, 5000 PPM IN DIET, Dose: 0, 2500, 5000 PPM IN DIET); “inactive; negative” (Species: MOUSE, Strain/Sex: B6C3F1/MALE, Route: ORAL, Dose: 0, 2500, 5000 PPM IN DIET, Dose: 0, 2500, 5000 PPM IN DIET); “inactive; negative” (Species: RAT, Strain/Sex: F344/FEMALE, Route: ORAL, Dose: 0, 2500, 5000 PPM IN DIET, Dose: 0, 2500, 5000 PPM IN DIET); “inactive; negative” (Species: RAT, Strain/Sex: F344/MALE, Route: ORAL, Dose: 0, 2500, 5000 PPM IN DIET, Dose: 0, 2500, 5000 PPM IN DIET).
For the compound `C1COCCN1`, the carcinogen call reads like this: (Species: RAT, Strain/Sex: SPRAGUE-DAWLEY/FEMALE, Route: INHALATION, Dose: 0, 10, 50, 150 PPM 6 HR/D 5 D/WK FOR 104 WK (STUDY DURATION: 105 WK), Dose: 0, 10, 50, 150 PPM 6 HR/D 5 D/WK FOR 104 WK (STUDY DURATION: 105 WK)) “inactive; negative”; (Species: RAT, Strain/Sex: SPRAGUE-DAWLEY/MALE, Route: INHALATION, Dose: 0, 10, 50, 150 PPM 6 HR/D 5 D/WK FOR 104 WK (STUDY DURATION: 105 WK), Dose: 0, 10, 50, 150 PPM 6 HR/D 5 D/WK FOR 104 WK (STUDY DURATION: 105 WK)) “inactive; negative”.

The values are drawn from PubChem BioAssay AID1259411 (Chemical Carcinogenesis Research Information System (CCRIS), 2018).
